Where two headings read alike, the source gives them in different places.
Experiments:
[1] = Source text: (§1) The MTT (3-[4.5-dimethylthiazol-2-yl]-2,5=diphenyl tetrazolium bromide) assay is based on a process undertaken by living cells, involving the conversion of MTT into formazan crystals. This assay is used routinely to measure the in vitro cytotoxic effects of drugs on cell lines or primary patient cells (Van Meerloo et al., 2011).
(§2) The glioblastoma multiforme (GBM) cell lines used were U87 and U251 cells and patient derived cells grown as oncospheres (081024 cells). Human adherent GBM cell lines U87 and U251 were cultured in RPMI medium (Life Technologies Melbourne Australia) supplemented with 5% v/v FBS, 100 U/mL penicillin and 100 μg/mL streptomycin. 081024 cells were cultured in NeuroCult™ NS-A Proliferation medium with 0.2% (v/v) hepain, 20 ng/mL EGF and 10 ng/ml FGF.
(§3) 8×10^3 U87 and 7×10^3 U251 cells per well were seeded in 96 well plates in 200 μL serum-containing RPMI medium and incubated at 37° C. with 5% CO2 for 24 hours. After one wash with serum-free medium, 100 μL serum-free medium with different concentration of peptide SEQ ID NO:1 was added to each well. After 48 hours incubation, 10 μL of 0.5 mg/mL MTT was added and incubated for 2 hours at 37° C. Formazan crystals were dissolved by 200 μL/well dimethyl sulfoxide (DMSO) and shaking for 15 minutes. The UV absorbance was read with an iMark™ microplate absorbance reader at 595 nm (Bio-Rad Laboratories). Background absorbance was subtracted and results expressed as the % viability of control (untreated cells).

recombinant MMP-2 = target: T1, recombinant MMP-2 (Homo sapiens, UniProt P08253); assay: MMP-2 Inhibitor Screening Assay Kit (colorimetric); format: biochemical
T1 construct: purchased ab139446
T1 sequence (P08253 110-446 limits assumed): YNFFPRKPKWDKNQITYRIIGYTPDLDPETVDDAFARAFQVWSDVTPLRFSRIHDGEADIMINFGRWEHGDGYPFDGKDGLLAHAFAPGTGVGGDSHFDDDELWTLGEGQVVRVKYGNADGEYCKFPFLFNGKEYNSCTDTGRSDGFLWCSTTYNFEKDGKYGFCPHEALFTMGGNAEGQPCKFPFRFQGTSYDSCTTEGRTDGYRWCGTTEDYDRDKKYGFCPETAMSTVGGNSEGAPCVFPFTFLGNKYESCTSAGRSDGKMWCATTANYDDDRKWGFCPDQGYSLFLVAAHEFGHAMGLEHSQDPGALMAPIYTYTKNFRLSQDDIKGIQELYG
Experimental: MMP-2 is an important target for inhibitor screening due to its involvement in cancer growth, angiogenesis, and metastasis. The MMP-2 screening assay was carried out with a commercially available MMP-2 Inhibitor Screening Assay Kit (Colorimetric, Catalog: ab139446) based on the manufacturers protocol. This assay is based on quantification of recombinant MMP-2 activity using a colorimetric assay (MMP-2 degrades a chromogenic substrate). The assay provides NNGH (N-isobutyl-N-(4-methoxyphenylsulfonyl) glycyl hydroxamic acid), a small molecule inhibitor, as a positive control (NNGH). […] Each determination was run in duplicate.
Briefly, MMP Substrate and MMP Inhibitor were warmed to room temperature to thaw DMSO. MMP Inhibitor (NNGH), MMP-2 substrate and MMP-2 enzyme were diluted with assay buffer to required concentration. 20 μL of MMP-2 enzyme and MMP-2 inhibitor (peptides, Chlorotoxin and NNGH) was added, then 50 μL of assay buffer was added and the reaction mixture incubated at 37° C. for 1 h. After incubation, 10 μL of MMP Substrate was added to start reaction. The reactions were continuously read at 412 nm in a microplate reader. Data was recorded at 1 min. time intervals for 10 to 20 min. The data as was plotted as optical density (OD) versus time for each sample. The reaction velocity (V) was obtained in OD/min: determine the slope of a line fit to the linear portion of the data plot using an appropriate routine. Then using the equation above the inhibitor % activity remaining was calculated. The control was without inhibitor.

MMP-2 mRNA = assay: Real time RT-PCR mRNA expression; format: cell-based, human
Source text: (§4) The real-time reverse transcription polymerase chain reaction (RT-PCR) uses fluorescent reporter molecules to monitor the production of amplification products during each cycle of the PCR reaction. This combines the nucleic acid amplification and detection steps into one homogeneous assay and use of appropriate chemistries and data analysis eliminates the need for Southern blotting or DNA sequencing for amplicon identification. Its simplicity, specificity and sensitivity, together with its potential for high throughput and the ongoing introduction of new chemistries, more reliable instrumentation and improved protocols, has made real-time RT-PCR the benchmark technology for the detection and/or comparison of RNA levels.′
(§5) In order to detect and quantify the expression of specific genes at mRNA level, real-time reverse transcriptase polymerase chain reaction (Real time RT-PCR) was performed. Total RNA of samples was isolated and purified using the PureLink® RNA Mini Kit (Life technologies). The concentration of total RNA was detected by NanoDrop 2000 Spectrophotometer (Thermo Scientific). The total RNA (2000 ng) was reverse transcribed using the High-Capacity cDNA Reverse Transcription Kit (Applied Biosystems™).
(§6) The primers of target genes were TaqMan™ Gene Expression Assay for human PLAU (Hs01547054_m1), MMP-2 (Hs01548727_ml), MMP-9 (Hs00957562_m1), Snail-1 (Hs00195591_m1), Snail-2 (Hs00161904_m1), N-cadherin (Hs00983056_m1) and Twist (Hs01675818_s1). Relative quantification was done by reference to 18S ribosomal RNA (18S rRNA) and analysed using the comparative critical threshold (Ct) method
(§7) The mRNA expression of MMPs was measured using qRT-PCR. This was tested three independent times; the results are shown in Tables 8, 9 and 10 for U251, U87 cells and 081024 cells respectively. Results are reported as percent of the control cells (no treatment). SEQ ID NO.

MMP-9 mRNA = assay: Real time RT-PCR mRNA expression; format: cell-based, human
Source text: as §4, §5, §6, §7

uPA (PLAU) mRNA = assay: Real time RT-PCR mRNA expression; format: cell-based, human
Source text: as §4, §5, §6, §7

[2] = remark: listed apart in the source
Source text: as §1, §2, §3

[3] = 081024 cells, baseline expression level = 1
[4] = U87 cells, baseline expression level = 1
[5] = U251 cells, relative to untreated control, 18S rRNA reference

SMILES: CC(C)C[C@@H](NC(=O)[C@@H](Cc1ccccc1)NC(=O)CNC(=O)CNC(=O)[C@H](N)Cc1ccc(O)cc1)C(=O)N[C@H](CCCNC(=N)N)C(=O)N[C@H](CCCNC(=N)N)C(N)=O [SEQ ID NO. 1, tyr-Gly-Gly-phe-leu-arg-arg-NH2]
- viability at 5 µM [1]: 97.9%
- viability at 50 µM [1]: 101%
- viability at 100 µM [1]: 95.9%
- activity at 1 µM (recombinant MMP-2; 1 μM, lower % = higher inhibitory activity, read-out: % inhibition (MMP-2 inhibitor screening)): 66.4%
- activity at 10 µM (recombinant MMP-2; 10 μM, lower % = higher inhibitory activity, read-out: % inhibition (MMP-2 inhibitor screening)): 61.8%
- activity at 100 µM (recombinant MMP-2; 100 μM, lower % = higher inhibitory activity, read-out: % inhibition (MMP-2 inhibitor screening)): 50.4%
- ability to inhibit MMP-2 activity (in words) (recombinant MMP-2; 1 to 100 μM): dose dependent ability to inhibit MMP-2 activity
- MMP-2 mRNA expression (MMP-2 mRNA; [3]): 0.72
- MMP-2 mRNA expression (MMP-2 mRNA; [4]): 0.74
- effect on mRNA expression of MMP-2 (in words) (MMP-2 mRNA; U251, U87 and 081024 cells): did not have a statistically significant effect
- MMP-2 mRNA expression (MMP-2 mRNA; [5]): 0.95
- MMP-9 mRNA expression (MMP-9 mRNA; [3]): 0.54
- MMP-9 mRNA expression (MMP-9 mRNA; [4]): 0.71
- effect on mRNA expression of MMP-9 (in words) (MMP-9 mRNA; U251, U87 and 081024 cells): did not have a statistically significant effect
- MMP-9 mRNA expression (MMP-9 mRNA; [5]): 1.10
- uPA mRNA expression (uPA (PLAU) mRNA; [3]): 0.67
- uPA mRNA expression (uPA (PLAU) mRNA; [4]): 1.20
- effect on mRNA expression of uPA (in words) (uPA (PLAU) mRNA; U251, U87 and 081024 cells): did not have a statistically significant effect
- uPA mRNA expression (uPA (PLAU) mRNA; [5]): 0.82
- viability at 5 µM [2]: 100%
- viability at 50 µM [2]: 101%
- viability at 100 µM [2]: 94.4%

Source: patent publication US20260001910A1, “PEPTIDES AND USES THEREOF” (PreveCeutical Medical Inc., priority 2021, published 2026)
